Source: paper PMC4631615 (Bipolar disorders, 2015)
Several values for one entry are separate records, joined by “and”; a condition that tells them apart may be missing. Identical values can stand only once. Marks after values point to notes of the source that are not given here.

Assays:
mouse = settings: source not given; cited from earlier work
SWV mouse fetuses [1] = test: Skeletal examination of fetuses; type: in vivo
SWV mouse fetuses [2] = settings: for Overall teratogenicity under the experimental conditions: SWV mice, p.o. GD 4–17, doses as fractions of LD50
pregnant SWV mice [3] = test: Maternal body weight and weight gain, teratogenicity study; type: in vivo, mouse; settings: mean ± SD
pregnant SWV mice [4] = test: Pregnancy outcomes; type: in vivo, mouse
NMRI mice = settings: injected on GD 8 with 3 mmol/kg; cited from earlier work
[5] = 1/4.36 of LD50 (RIS 14.5, VCD 229.2 mg/kg) p.o. GD 4–17
[6] = 1/6.54 of LD50 (RIS 9.6, OLA 32.1, VCD 152.8 mg/kg) p.o. GD 4–17
[7] = 1/6.54 of LD50 (RIS 9.6, OLA 32.1, VCD 152.8 mg/kg) p.o. GD 4–17, mean ± SD
[8] = 1/13.1 of LD50 (OLA 16.05 mg/kg) p.o. GD 4–17

SMILES: Cc1nc2n(c(=O)c1CCN1CCC(c3noc4cc(F)ccc34)CC1)CCCC2 [RIS, 3-(2-(4-(6-fluoro-1,2-benzisoxazol-3-yl)piperidino)ethyl)-6,7,8,9-tetrahydro-2-methyl-4H-pyrido(1,2-a)pyrimidin-4-one]
- LD50 mouse, oral (mouse): 63 mg/kg
- All vertebra: incomplete ossification, affected fetuses (SWV mouse fetuses [1]; [5]): 0
- Cervical vertebra: ossified fusion of centrums, affected fetuses (SWV mouse fetuses [1]; [5]): 0
- Fetuses with skeletal abnormalities, % (SWV mouse fetuses [1]; [5]): 20.1%
- Fibula: bent, affected fetuses (SWV mouse fetuses [1]; [5]): 0
- Metacarpal: absent ossification, affected fetuses (SWV mouse fetuses [1]; [5]): 6
- Metacarpal: absent ossification, affected litters (SWV mouse fetuses [1]; [5]): 1
- Metacarpal: incomplete ossification, affected fetuses (SWV mouse fetuses [1]; [5]): 0
- Metatarsal: absent ossification, affected fetuses (SWV mouse fetuses [1]; [5]): 6
- Metatarsal: absent ossification, affected litters (SWV mouse fetuses [1]; [5]): 1
- Metatarsal: incomplete ossification, affected fetuses (SWV mouse fetuses [1]; [5]): 0
- Ribs: absent 13th, affected fetuses (SWV mouse fetuses [1]; [5]): 0
- Ribs: branched, affected fetuses (SWV mouse fetuses [1]; [5]): 0
- Skull: incomplete ossification, affected fetuses (SWV mouse fetuses [1]; [5]): 6
- Skull: incomplete ossification, affected litters (SWV mouse fetuses [1]; [5]): 1
- Skull: interparietal incomplete ossification, affected fetuses (SWV mouse fetuses [1]; [5]): 0
- Skull: parietal incomplete ossification, affected fetuses (SWV mouse fetuses [1]; [5]): 1/1
- Skull: parietal incomplete ossification, affected litters (SWV mouse fetuses [1]; [5]): 1/1
- Skull: supraoccipital incomplete ossification, affected fetuses (SWV mouse fetuses [1]; [5]): 0
- Sternebra: absent ossification, affected fetuses (SWV mouse fetuses [1]; [5]): 7
- Sternebra: absent ossification, affected litters (SWV mouse fetuses [1]; [5]): 2
- Sternebra: incomplete ossification, affected fetuses (SWV mouse fetuses [1]; [5]): 13
- Sternebra: incomplete ossification, affected litters (SWV mouse fetuses [1]; [5]): 9
- Sternebra: misaligned, affected fetuses (SWV mouse fetuses [1]; [5]): 0
- Sternebra: misshapen, affected fetuses (SWV mouse fetuses [1]; [5]): 1/1
- Sternebra: misshapen, affected litters (SWV mouse fetuses [1]; [5]): 1/1
- Whole skeletal system: incomplete ossification, affected fetuses (SWV mouse fetuses [1]; [5]): 2
- Whole skeletal system: incomplete ossification, affected litters (SWV mouse fetuses [1]; [5]): 1
- All vertebra: incomplete ossification, affected fetuses (SWV mouse fetuses [1]; [6]): 0
- Cervical vertebra: ossified fusion of centrums, affected fetuses (SWV mouse fetuses [1]; [6]): 0
- Fetuses with skeletal abnormalities, % (SWV mouse fetuses [1]; [6]): 10.8%
- Fibula: bent, affected fetuses (SWV mouse fetuses [1]; [6]): 0
- Metacarpal: absent ossification, affected fetuses (SWV mouse fetuses [1]; [6]): 0
- Metacarpal: incomplete ossification, affected fetuses (SWV mouse fetuses [1]; [6]): 1/1
- Metacarpal: incomplete ossification, affected litters (SWV mouse fetuses [1]; [6]): 1/1
- Metatarsal: absent ossification, affected fetuses (SWV mouse fetuses [1]; [6]): 0
- Metatarsal: incomplete ossification, affected fetuses (SWV mouse fetuses [1]; [6]): 1/1
- Metatarsal: incomplete ossification, affected litters (SWV mouse fetuses [1]; [6]): 1/1
- Ribs: absent 13th, affected fetuses (SWV mouse fetuses [1]; [6]): 0
- Ribs: branched, affected fetuses (SWV mouse fetuses [1]; [6]): 0
- Skull: incomplete ossification, affected fetuses (SWV mouse fetuses [1]; [6]): 3
- Skull: incomplete ossification, affected litters (SWV mouse fetuses [1]; [6]): 2
- Skull: interparietal incomplete ossification, affected fetuses (SWV mouse fetuses [1]; [6]): 0
- Skull: parietal incomplete ossification, affected fetuses (SWV mouse fetuses [1]; [6]): 0
- Skull: supraoccipital incomplete ossification, affected fetuses (SWV mouse fetuses [1]; [6]): 0
- Sternebra: absent ossification, affected fetuses (SWV mouse fetuses [1]; [6]): 0
- Sternebra: incomplete ossification, affected fetuses (SWV mouse fetuses [1]; [6]): 5
- Sternebra: incomplete ossification, affected litters (SWV mouse fetuses [1]; [6]): 4
- Sternebra: misaligned, affected fetuses (SWV mouse fetuses [1]; [6]): 0
- Sternebra: misshapen, affected fetuses (SWV mouse fetuses [1]; [6]): 3/3
- Sternebra: misshapen, affected litters (SWV mouse fetuses [1]; [6]): 3/3
- Whole skeletal system: incomplete ossification, affected fetuses (SWV mouse fetuses [1]; [6]): 1/1
- Whole skeletal system: incomplete ossification, affected litters (SWV mouse fetuses [1]; [6]): 1/1
- Overall teratogenicity under the experimental conditions (SWV mouse fetuses [2]): maternal-, embryo-, and fetotoxic
- Cleft palate, affected fetuses (SWV mouse fetuses [2]; female, SWV, mouse, in vivo): 8
- Dilated brain ventricles, affected litters (SWV mouse fetuses [2]; female, SWV, mouse, in vivo): 2/2
- Exencephaly, affected litters (SWV mouse fetuses [2]; female, SWV, mouse, in vivo): 1/1
- Fetuses with external abnormalities, % (SWV mouse fetuses [2]; female, SWV, mouse, in vivo): 0.4%
- Malposition stomach, affected fetuses (SWV mouse fetuses [2]; female, SWV, mouse, in vivo): 0
- Right aortic arch, affected fetuses (SWV mouse fetuses [2]; female, SWV, mouse, in vivo): 0
- Dams net weight gain (pregnant SWV mice [3]; [5]): 7.4 ± 2.3 ^a grams
- Dams weight GD 18 (pregnant SWV mice [3]; [5]): 47.1 ± 3.2 grams
- Dams weight gain (pregnant SWV mice [3]; [5]): 18.1 grams and 18.1 ± 2.5 ^a grams
- Dams net weight gain (pregnant SWV mice [3]; [6]): 7.5 ± 2.0 grams
- Dams weight GD 18 (pregnant SWV mice [3]; [6]): 46.9 ± 4.8 grams
- Dams weight gain (pregnant SWV mice [3]; [6]): 19.4 ± 4.2 grams
- Resorption rate (pregnant SWV mice [4]; 1/4.36 of LD50 (RIS 14.5 mg/kg) p.o. GD 4–17): 12.4%
- Fetus weight (pregnant SWV mice [4]; 1/4.36 of LD50 (RIS 14.5, VCD 229.2 mg/kg) p.o. GD 4–17, mean ± SD): 0.83 ± 0.05 ^a g
- Fetus weight (pregnant SWV mice [4]; [7]): 0.89 ± 0.06 g

SMILES: CCCC(CCC)C(=O)O [VPA, valproic acid]
- Exposed fetuses with exencephaly (NMRI mice): 52%
- Resorption rate (NMRI mice): 53%

SMILES: Cc1cc2c(s1)Nc1ccccc1N=C2N1CCN(C)CC1 [OLA, 2-methyl-4-(4-methyl-1-piperazinyl)-10H-thieno(2,3-b)([1],[5])benzodiazepine]
- LD50 mouse, oral (mouse): 210 mg/kg
- All vertebra: incomplete ossification, affected fetuses (SWV mouse fetuses [1]; [6]): 3
- All vertebra: incomplete ossification, affected litters (SWV mouse fetuses [1]; [6]): 1
- Cervical vertebra: ossified fusion of centrums, affected fetuses (SWV mouse fetuses [1]; [6]): 0
- Fetuses with skeletal abnormalities, % (SWV mouse fetuses [1]; [6]): 79.2%
- Fibula: bent, affected fetuses (SWV mouse fetuses [1]; [6]): 0
- Metacarpal: absent ossification, affected fetuses (SWV mouse fetuses [1]; [6]): 12
- Metacarpal: absent ossification, affected litters (SWV mouse fetuses [1]; [6]): 8
- Metacarpal: incomplete ossification, affected fetuses (SWV mouse fetuses [1]; [6]): 6
- Metacarpal: incomplete ossification, affected litters (SWV mouse fetuses [1]; [6]): 3
- Metatarsal: absent ossification, affected fetuses (SWV mouse fetuses [1]; [6]): 14
- Metatarsal: absent ossification, affected litters (SWV mouse fetuses [1]; [6]): 9
- Metatarsal: incomplete ossification, affected fetuses (SWV mouse fetuses [1]; [6]): 4
- Metatarsal: incomplete ossification, affected litters (SWV mouse fetuses [1]; [6]): 3
- Ribs: absent 13th, affected fetuses (SWV mouse fetuses [1]; [6]): 1/1
- Ribs: absent 13th, affected litters (SWV mouse fetuses [1]; [6]): 1/1
- Ribs: branched, affected fetuses (SWV mouse fetuses [1]; [6]): 0
- Skull: incomplete ossification, affected fetuses (SWV mouse fetuses [1]; [6]): 1/1
- Skull: incomplete ossification, affected litters (SWV mouse fetuses [1]; [6]): 1/1
- Skull: interparietal incomplete ossification, affected fetuses (SWV mouse fetuses [1]; [6]): 1/1
- Skull: interparietal incomplete ossification, affected litters (SWV mouse fetuses [1]; [6]): 1/1
- Skull: parietal incomplete ossification, affected fetuses (SWV mouse fetuses [1]; [6]): 0
- Skull: supraoccipital incomplete ossification, affected fetuses (SWV mouse fetuses [1]; [6]): 1/1
- Skull: supraoccipital incomplete ossification, affected litters (SWV mouse fetuses [1]; [6]): 1/1
- Sternebra: absent ossification, affected fetuses (SWV mouse fetuses [1]; [6]): 8
- Sternebra: absent ossification, affected litters (SWV mouse fetuses [1]; [6]): 5
- Sternebra: incomplete ossification, affected fetuses (SWV mouse fetuses [1]; [6]): 8
- Sternebra: incomplete ossification, affected litters (SWV mouse fetuses [1]; [6]): 7
- Sternebra: misaligned, affected fetuses (SWV mouse fetuses [1]; [6]): 0
- Sternebra: misshapen, affected fetuses (SWV mouse fetuses [1]; [6]): 0
- Whole skeletal system: incomplete ossification, affected fetuses (SWV mouse fetuses [1]; [6]): 7
- Whole skeletal system: incomplete ossification, affected litters (SWV mouse fetuses [1]; [6]): 3
- All vertebra: incomplete ossification, affected fetuses (SWV mouse fetuses [1]; [8]): 0
- Cervical vertebra: ossified fusion of centrums, affected fetuses (SWV mouse fetuses [1]; [8]): 0
- Fibula: bent, affected fetuses (SWV mouse fetuses [1]; [8]): 0
- Metacarpal: absent ossification, affected fetuses (SWV mouse fetuses [1]; [8]): 1/1
- Metacarpal: absent ossification, affected litters (SWV mouse fetuses [1]; [8]): 1/1
- Metacarpal: incomplete ossification, affected fetuses (SWV mouse fetuses [1]; [8]): 47
- Metacarpal: incomplete ossification, affected litters (SWV mouse fetuses [1]; [8]): 12
- Metatarsal: absent ossification, affected fetuses (SWV mouse fetuses [1]; [8]): 8/8 ^b
- Metatarsal: absent ossification, affected litters (SWV mouse fetuses [1]; [8]): 8/8 ^b
- Metatarsal: incomplete ossification, affected fetuses (SWV mouse fetuses [1]; [8]): 20
- Metatarsal: incomplete ossification, affected litters (SWV mouse fetuses [1]; [8]): 8
- Ribs: absent 13th, affected fetuses (SWV mouse fetuses [1]; [8]): 0
- Ribs: branched, affected fetuses (SWV mouse fetuses [1]; [8]): 0
- Skull: incomplete ossification, affected fetuses (SWV mouse fetuses [1]; [8]): 0
- Skull: interparietal incomplete ossification, affected fetuses (SWV mouse fetuses [1]; [8]): 4
- Skull: interparietal incomplete ossification, affected litters (SWV mouse fetuses [1]; [8]): 3
- Skull: parietal incomplete ossification, affected fetuses (SWV mouse fetuses [1]; [8]): 3
- Skull: parietal incomplete ossification, affected litters (SWV mouse fetuses [1]; [8]): 2
- Skull: supraoccipital incomplete ossification, affected fetuses (SWV mouse fetuses [1]; [8]): 1/1
- Skull: supraoccipital incomplete ossification, affected litters (SWV mouse fetuses [1]; [8]): 1/1
- Sternebra: absent ossification, affected fetuses (SWV mouse fetuses [1]; [8]): 4/4
- Sternebra: absent ossification, affected litters (SWV mouse fetuses [1]; [8]): 4/4
- Sternebra: incomplete ossification, affected fetuses (SWV mouse fetuses [1]; [8]): 25
- Sternebra: incomplete ossification, affected litters (SWV mouse fetuses [1]; [8]): 11
- Sternebra: misaligned, affected fetuses (SWV mouse fetuses [1]; [8]): 0
- Sternebra: misshapen, affected fetuses (SWV mouse fetuses [1]; [8]): 0
- Whole skeletal system: incomplete ossification, affected fetuses (SWV mouse fetuses [1]; [8]): 0
- Overall teratogenicity under the experimental conditions (SWV mouse fetuses [2]): the most teratogenic of the three test drugs
- Dilated brain ventricles, affected litters (SWV mouse fetuses [2]; female, SWV, mouse, in vivo): 2/2
- Dilated renal pelvis, affected litters (SWV mouse fetuses [2]; female, SWV, mouse, in vivo): 2/2
- Exencephaly, affected fetuses (SWV mouse fetuses [2]; female, SWV, mouse, in vivo): 0
- Malposition stomach, affected fetuses (SWV mouse fetuses [2]; female, SWV, mouse, in vivo): 0
- Right aortic arch, affected fetuses (SWV mouse fetuses [2]; female, SWV, mouse, in vivo): 0
- Dams net weight gain (pregnant SWV mice [3]; [6]): 5.6 ± 2.0 ^a grams
- Dams weight GD 18 (pregnant SWV mice [3]; [6]): 34.9 grams and 34.9 ± 4.0 ^a grams
- Dams weight gain (pregnant SWV mice [3]; [6]): 8.0 ± 3.5 ^a grams
- Dams net weight gain (pregnant SWV mice [3]; [8]): 8.8 ± 1.8 grams
- Dams weight GD 18 (pregnant SWV mice [3]; [8]): 46.5 ± 3.6 grams
- Dams weight gain (pregnant SWV mice [3]; [8]): 18.7 ± 3.8 grams
- Fetus weight (pregnant SWV mice [4]; [7]): 0.66 ± 0.09 ^a g
- Resorptions/litter (pregnant SWV mice [4]; [7]): 9.6 ± 3.9 ^a
- Fetus weight (pregnant SWV mice [4]; 1/13.1 of LD50 (OLA 16.05 mg/kg) p.o. GD 4–17, mean ± SD): 0.83 ± 0.10 ^a g
- Embryos resorbed (pregnant SWV mice [4]; 1/13.1 of LD50 (OLA 16.05 mg/kg, low dose) p.o. GD 4–17): 15%
